What is called MIC is the smallest concentration in the dilution series that meets the test's criterion for growth inhibition.

In assay [1] the test system is Klebsiella pneumoniae 88 (NDM1+). The class given is cell-based. The procedure:
(§1) MICs were determined by using the broth microdilution method based on the general recommendations of the Clinical and Laboratory Standards Institute (CLSI). Bacteria were grown in CAMHB overnight. They were then diluted into fresh medium the following morning and grown to early log phase. The cultures were then diluted to approximately 5 × 10^5 CFU ml^−1, and 100 μl was added to sterile 96-well polypropylene microtiter plates (Corning, NY, USA) preloaded with twofold dilutions of antimicrobial peptides. […] All MIC assays were determined from at least three independent assays.

In the next assay the test system is Escherichia coli OC4075. The format is cell-based. The procedure:
as §1

In assay [2] the test system is Enterobacter cloacae OC4080. The format is cell-based. The procedure: as §1
Assay [3] concerns Enterobacter cloacae OC4092. The format is cell-based. The procedure: as §1
Assay [4] relates to Pseudomonas aeruginosa PAO1. The class given is cell-based. The procedure:
as §1

The test system of assay [5] is Pseudomonas aeruginosa OC4083. The format is cell-based. The procedure:
as §1

In assay [6] the test system is Klebsiella pneumoniae 262 (NDM1+). The class given is cell-based. The procedure: as §1
Assay [7] has as its system Pseudomonas aeruginosa ATCC 27853. The class given is cell-based. The procedure:
as §1

Assay [8] has as its system Escherichia coli ATCC 35218. The format is cell-based. The procedure:
as §1

The next assay deals with Escherichia coli MC4100a. The class given is cell-based. The procedure:
as §1

A further assay relates to Klebsiella pneumoniae C2. The format is cell-based. The procedure:
as §1

For assay [9], the system named is Klebsiella pneumoniae OC4110. The format is cell-based. The procedure:
as §1

For assay [10], the system named is Escherichia coli ATCC 25922. The format is cell-based. The procedure: as §1
Assay [11] relates to Klebsiella pneumoniae OC8893. The class given is cell-based. The procedure: as §1
For assay [12], the system named is Klebsiella pneumoniae ATCC 700603. The format is cell-based. The procedure:
as §1

In the next assay the test system is Escherichia coli UTI89. The format is cell-based. The procedure: as §1
The next assay has as its system Gram-positive bacteria. Conditions: cited from earlier work. From the text: The human cathelicidin LL-37 has important roles in modulating inflammatory responses. […] Perhaps because they are released in response to bacterial infection and tissue injuries, LL-37 and other cathelicidins can promote wound healing and reduce fibrosis ([8][–][10]). All of these desirable activities have generated significant interest in developing cathelicidins to treat bacterial infection and injuries, however, c ...

Ends that are not written are not given here.

As to “GRFKRFRKKLKKLFKKLSPVIPLLHLG [BMAP-27B, reference compound]”, the MIC (in assay [1]; against Escherichia coli OC4075; in [2]; in assay [3]; in assay [4]; in assay [5]) was 4 µM in each case. Further, the MIC is 4 µM in assay [6]; 4 µM in assay [7]; 4 µM in assay [8]; 4 µM in the assay on Escherichia coli MC4100a; 4 µM in the assay on Klebsiella pneumoniae C2; 8 µM in assay [9]. Further, the minimal inhibitory concentration (MIC) in assay [10] is 4 µM; in assay [11], 8 µM; in assay [12], 4 µM; with Escherichia coli UTI89, 4 µM. For the same sequence, the “Fold-higher concentration needed to reach the MICs for Gram-positive bacteria” value in the assay with Gram-positive bacteria is given as “ca. 10 fold”.

The values are drawn from paper PMC6737244, “Cathelicidin Peptides Restrict Bacterial Growth via Membrane Perturbation and Induction of Reactive Oxygen Species” (mBio, 2019).
